# Assay results from patent US20050159333A1, “Methods of modulating smooth muscle contractility” (priority 2002, published 2005).
# “And” between values parts separate entries of the source, which are not always exact repeats. Identical values can stand only once. Counter-ions that a name gives are not always drawn. Like-named read-outs stand apart in the source and are kept apart here.
# Legend:
# [1] = tested on: isolated male rat urinary bladder; test: carbachol-evoked contractions of isolated male rat urinary bladder strips (organ bath); assay type: cell-based
# [2] = tested on: isolated male rat urinary bladder; test: NKA-evoked contractions of isolated male rat urinary bladder strips (organ bath); assay type: cell-based
# [3] = tested on: isolated male rat urinary bladder; test: KCl-evoked contractions of isolated male rat urinary bladder strips (organ bath); assay type: cell-based
# [4] = tested on: isolated male rat urinary bladder; test: α,β-methylene ATP-evoked contractions of isolated male rat urinary bladder strips (organ bath); assay type: cell-based; conditions: for attenuation of α,β-methylene ATP-evoked bladder contractions: 10 μM inhibitor, 45 min, 10 μM α,β-methylene ATP
# [5] = tested on: isolated male rat urinary bladder; test: electrically-evoked contractions of isolated male rat urinary bladder strips (organ bath); assay type: cell-based
# [6] = tested on: isolated male rat urinary bladder; test: baseline bladder tension of isolated male rat urinary bladder strips; assay type: cell-based; conditions: for decrease in baseline bladder tension from baseline / relaxation (decrease in baseline bladder tension): 10 μM, 45 min incubation; for effect on baseline bladder tension / bladder tone: absence of agonist-evoked contractile responses
# [7] = tested on: isolated male rat urinary bladder; test: contractile responses of isolated male rat urinary bladder to the PKC activator phorbol ester; assay type: cell-based
# ROCK II = conditions: Ishizaki et al. 2000; cited from earlier work
# PRK1 (protein kinase N) = PRK1 (protein kinase N) (Homo sapiens, UniProt Q16512); conditions: cited from earlier work
# [8] = molecular target: protein kinase C-related protein kinase 2 (PRK2) (Homo sapiens, UniProt Q16513); conditions: Davies et al. 2000; cited from earlier work
# [9] = tested on: other serine/threonine protein kinases; conditions: Davies et al. 2000; cited from earlier work
# [10] = tested on: isolated rabbit urinary bladder smooth muscle; conditions: Jezior et al. 2001, cited from earlier work
# [11] = tested on: isolated rabbit pulmonary artery; conditions: Fu et al. 1998; cited from earlier work
# PKC from rat brain = conditions: cited from earlier work
# PKC, human form = PKC, human form (Homo sapiens, UniProt P17252); conditions: 20 μM HA-1077; Davies et al. 2000; cited from earlier work
# isolated rabbit aorta = conditions: Seto et al. 1991; cited from earlier work
# [12] = Rattus norvegicus, read-out: antagonist affinity (pKb) (converted)
# [13] = all frequencies (2, 4, 8, 16 Hz), Y-27632 10 μM, atropine 1 μM, α,β-methylene ATP 10 μM
# [14] = Y-27632 10 μM, unpublished observations
# [15] = vehicle experiments, at 3×10^−7 M NKA
# Chain of protein kinase C-related protein kinase 2 (PRK2) (Q16513 whole entry, species assumed): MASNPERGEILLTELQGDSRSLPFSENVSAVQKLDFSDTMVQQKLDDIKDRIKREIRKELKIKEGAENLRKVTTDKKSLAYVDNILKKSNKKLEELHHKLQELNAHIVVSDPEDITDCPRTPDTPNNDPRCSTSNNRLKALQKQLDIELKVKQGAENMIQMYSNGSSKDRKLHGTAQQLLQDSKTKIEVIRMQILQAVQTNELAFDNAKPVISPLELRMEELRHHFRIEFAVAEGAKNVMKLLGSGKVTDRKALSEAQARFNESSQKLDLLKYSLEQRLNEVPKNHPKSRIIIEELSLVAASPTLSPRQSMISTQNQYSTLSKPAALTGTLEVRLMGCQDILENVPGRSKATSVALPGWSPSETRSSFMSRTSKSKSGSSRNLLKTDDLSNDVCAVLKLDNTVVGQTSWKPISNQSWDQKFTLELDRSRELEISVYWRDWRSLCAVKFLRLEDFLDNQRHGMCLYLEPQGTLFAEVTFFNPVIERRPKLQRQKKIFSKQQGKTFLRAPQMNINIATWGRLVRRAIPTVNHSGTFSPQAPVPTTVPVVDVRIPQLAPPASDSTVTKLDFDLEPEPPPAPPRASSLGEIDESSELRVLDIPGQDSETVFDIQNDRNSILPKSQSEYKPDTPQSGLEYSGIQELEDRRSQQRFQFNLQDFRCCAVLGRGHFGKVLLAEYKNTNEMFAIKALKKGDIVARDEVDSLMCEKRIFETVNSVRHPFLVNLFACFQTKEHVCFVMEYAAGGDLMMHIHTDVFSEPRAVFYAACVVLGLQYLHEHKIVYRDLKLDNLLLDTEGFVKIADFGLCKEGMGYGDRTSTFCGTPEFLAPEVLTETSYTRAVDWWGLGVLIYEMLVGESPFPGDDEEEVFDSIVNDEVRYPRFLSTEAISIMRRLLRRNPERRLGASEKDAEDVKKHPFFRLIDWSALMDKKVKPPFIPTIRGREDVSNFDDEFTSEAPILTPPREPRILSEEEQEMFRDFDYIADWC
# Chain of PRK1 (protein kinase N) (Q16512 whole entry, species assumed): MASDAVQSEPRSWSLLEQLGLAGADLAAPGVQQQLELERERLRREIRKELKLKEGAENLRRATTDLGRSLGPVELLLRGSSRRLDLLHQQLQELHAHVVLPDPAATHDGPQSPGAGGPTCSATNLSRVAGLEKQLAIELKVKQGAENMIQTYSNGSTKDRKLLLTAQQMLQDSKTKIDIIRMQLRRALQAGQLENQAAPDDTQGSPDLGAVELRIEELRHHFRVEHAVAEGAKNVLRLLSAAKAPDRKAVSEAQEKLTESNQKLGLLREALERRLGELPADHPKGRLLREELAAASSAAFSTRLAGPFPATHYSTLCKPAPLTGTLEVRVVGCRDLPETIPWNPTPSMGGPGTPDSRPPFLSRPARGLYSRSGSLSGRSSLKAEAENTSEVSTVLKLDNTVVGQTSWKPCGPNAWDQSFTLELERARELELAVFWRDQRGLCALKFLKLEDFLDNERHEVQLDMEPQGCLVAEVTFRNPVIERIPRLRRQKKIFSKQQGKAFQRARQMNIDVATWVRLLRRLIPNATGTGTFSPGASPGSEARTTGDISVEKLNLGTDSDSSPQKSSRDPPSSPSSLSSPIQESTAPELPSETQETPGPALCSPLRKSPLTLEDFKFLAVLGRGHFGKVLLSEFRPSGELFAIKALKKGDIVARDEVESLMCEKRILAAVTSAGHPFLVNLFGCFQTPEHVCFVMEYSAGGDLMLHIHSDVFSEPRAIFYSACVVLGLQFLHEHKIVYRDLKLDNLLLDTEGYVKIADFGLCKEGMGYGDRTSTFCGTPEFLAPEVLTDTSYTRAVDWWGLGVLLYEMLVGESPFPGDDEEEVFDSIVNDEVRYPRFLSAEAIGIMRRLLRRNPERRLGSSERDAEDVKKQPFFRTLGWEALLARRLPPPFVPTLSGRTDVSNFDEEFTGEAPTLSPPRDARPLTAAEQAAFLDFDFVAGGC
compound,measurement,setting,value
"C[C@@H](N)[C@H]1CC[C@H](C(=O)Nc2ccncc2)CC1 [Y-27632, (+)-(R)-trans-4-(1-amino-ethyl)-N-(4-pyridyl) cyclohexanecarboxamide dihydrochloride monohydrate]",inhibition of carbachol-evoked contractions,"[1]; 10 μM Y-27632, 45 min pretreatment, at 3×10^−6 M carbachol, dihydrochloride monohydrate",58±11%
same,effect on carbachol-evoked contractions,"[1]; 10 μM Y-27632, 10^−5-10^−4 carbachol",this inhibition was not significant
same,effect on carbachol-evoked contractions,"[1]; 10 μM Y-27632, 10^−9-3×10^−6 M carbachol",significantly attenuated
same,inhibition at 10 µM,"[1]; Rattus norvegicus, 10 μM Y-27632, 45 min pretreatment, at 3×10^−6 M carbachol",58.1 ± 10.5%
same,Kb,[1]; [12],2.14 µM
same,degree of attenuation of G protein-coupled receptor contractile responses (carbachol and NKA),"[1]; Y-27632 10 μM, carbachol and NKA responses together",approximately 50%
same,effect on carbachol-evoked contractions,[1]; pretreatment with 1 and 3 μM Y-27632,no effect
same,effect on NKA-induced contractions,"[2]; 10 μM Y-27632, all concentrations of agonist",significantly attenuated
same,attenuation of NKA-evoked bladder contractions,"[2]; 10 μM Y-27632, at 10^−6 M",69±13%
same,Kb,[2]; [12],2.51 µM
same,inhibition at 10 µM,"[2]; Rattus norvegicus, read-out: inhibition of NKA-induced contractions",68.6 ± 12.7%
same,effect on contractile response to KCl,"[3]; 10 μM Y-27632, KCl 10-100 mM, dihydrochloride monohydrate",no measureable effect
same,"attenuation of α,β-methylene ATP-evoked bladder contractions",[4]; dihydrochloride monohydrate,30.0±7.2% and 30±7% and ~30%
same,effect on AUC of electrically-evoked bladder contractions,[5]; [13],significantly attenuated
same,effect on amplitude of electrically-evoked bladder contractions,[5]; [13],significantly attenuated
same,decrease in baseline bladder tension from baseline,[6],47.0±2.5%
same,relaxation (decrease in baseline bladder tension),[6],0.40 ± 0.05 g
same,effect on baseline bladder tension / bladder tone,[6],decreased bladder tone
same,effect on contractile responses to the PKC activator phorbol ester,[7]; [14],no effect
same,Ki,ROCK II,0.3 µM
same,Ki,PRK1 (protein kinase N),3.1 µM
same,effect on PRK2,[8],inhibited
same,effect on a large number of other serine/threonine protein kinases,[9],minimal effect
same,effect on bethanechol-evoked contractions,[10]; dihydrochloride monohydrate,attenuates
same,effect on AA-evoked contractile responses,[11],attenuated
"[Cl-].[K+] [KCl, potassium chloride]",maximal response to KCl,[3],8.7 ± 0.5 g
same,EC50,[3]; read-out: KCl EC50 in the absence of antagonist,31000 ± 4300 µM
"O=S(=O)(c1cccc2cnccc12)N1CCCNCC1 [HA-1077, fasudil]","attenuation of α,β-methylene ATP-evoked bladder contractions",[4],22.1±5.7% and 22±6%
same,decrease in baseline bladder tension from baseline,[6],36.1±1.6%
same,relaxation (decrease in baseline bladder tension),[6],0.30 ± 0.01 g
same,effect on baseline bladder tension / bladder tone,[6],decreased bladder tone
same,effect on contractile responses to the PKC activator phorbol ester,[7]; [14],no inhibitory effects
same,Ki,PKC from rat brain,9.3 µM
same,inhibitory effect on the human form of PKC,"PKC, human form",no significant inhibitory effects
same,effect on PRK2,[8],inhibited
same,effect on bethanechol-evoked contractions,[10],attenuate
same,effect on PG-evoked contractions,isolated rabbit aorta,inhibits
"C[N+](C)(C)CCOC(N)=O.[Cl-] [carbachol, carbamylcholine chloride]",EC50,"[1]; Rattus norvegicus, read-out: carbachol EC50 in the presence of Y-27632",1.03 ± 0.336 µM
same,Emax at 10 µM,"[1]; Rattus norvegicus, vehicle experiments, at 10^−5 M carbachol, read-out: maximal response to carbachol as % of the response to 100 mM KCl",105 ± 28.2%
same,EC50,"[1]; Rattus norvegicus, vehicle experiments, read-out: carbachol EC50 in the absence of antagonist",0.183 ± 0.0689 µM
same,maximal response to carbachol,"[1]; vehicle experiments, at 10^−5 M carbachol",5.3 ± 0.9 g
CN(C)CCCn1cc(C2=C(c3c[nH]c4ccccc34)C(=O)NC2=O)c2ccccc21 [GF109203X],effect on contractile responses to the PKC activator phorbol ester,[7],inhibited
"CSCC[C@H](NC(=O)[C@H](CC(C)C)NC(=O)CNC(=O)[C@@H](NC(=O)[C@H](Cc1ccccc1)NC(=O)[C@H](CO)NC(=O)[C@H](CC(=O)O)NC(=O)[C@@H](NC(=O)[C@H](CCCCN)NC(=O)[C@@H](N)Cc1c[nH]cn1)[C@@H](C)O)C(C)C)C(N)=O [NKA, Neurokinin A]",EC50,"[2]; read-out: NKA EC50 in the presence of Y-27632, 10 μM Y-27632",0.0324 µM
same,maximal response to NKA,[2]; [15],4.2 ± 0.4 g
same,maximal response to NKA as % of the response to 100 mM KCl,[2]; [15],136.2±24.8%
"NC1=N[C@H](O)[C@H]2[C@H]3O[C@]4(O)O[C@@H]([C@@H](O)[C@@]2(N1)[C@@H]4O)[C@]3(O)CO [TTX, tetrodotoxin]",effect on frequency-response curves to electrical stimulation,[5],abolished
"Nc1ncnc2c1ncn2[C@@H]1O[C@H](COP(=O)(O)CP(=O)(O)OP(=O)(O)O)[C@@H](O)[C@H]1O [α,β-methylene ATP]","mean amplitude of contractile responses evoked by α,β-methylene ATP",[4],3.9 ± 0.5 g
